Patent US20260234165A1, “MACROCYCLIC COMPOUNDS, PREPARATION METHOD THEREFOR, AND USE THEREOF” (GENFLEET THERAPEUTICS (SHANGHAI) INC., priority 2004, published 2026)
Counter-ions that a name gives are not always drawn. Like-named read-outs stand apart in the source and are kept apart here.

Key:
Format in all cases: cell-based, human
[1] = test system: p-ERK in AsPC-1 cells (KRAS G12D mutation); test: Cell p-ERK assay (HTRF) in AsPC-1 cells; conditions: AsPC-1 cells, 3 h compound incubation, HTRF p-ERK T202/Y204, read-out: AsPC-1 p-ERK IC50
In short: (§1)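 Phospho-ERK inhibition measured by HTRF after a 3 h compound exposure (0.1% DMSO) in overnight-seeded cells; IC50 derived from dose-response fitting.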

[2] = test system: p-ERK in NCI-H441 cells (KRAS G12V mutation); test: Cell p-ERK assay (HTRF) in NCI-H441 cells; conditions: NCI-H441 cells, 3 h compound incubation, HTRF p-ERK T202/Y204, read-out: H441 p-ERK IC50
In short: as §1

[3] = test system: AsPC-1 cells (KRAS G12D mutation); test: 3D cell proliferation assay (CellTiter Glo-3D), AsPC-1; conditions: medium with 2% FBS, read-out: AsPC-1 AP IC50
In short: (§2)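 800 cells/well (NCI-H441, […]; AsPC-1, KRAS G12D), low-serum RPMI-1640 (2% FBS), overnight attach; 3.16-fold serial dilutions added, 0.1% DMSO; 5 d, 37 °C; CellTiter-Glo 3D RLU; IC50, 4-parameter fit.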

NCI-H441 cells = test: 3D cell proliferation assay (CellTiter Glo-3D), NCI-H441; conditions: medium with 2% FBS, read-out: H441 AP IC50
In short: as §2

[4] = Homo sapiens, ASPC1, 3D cell proliferation (CellTiter Glo-3D)
[5] = Homo sapiens, NCI-H441, 3D cell proliferation (CellTiter Glo-3D)
[6] = 3D cell proliferation (CellTiter Glo-3D)

In the case of `CCn1c(-c2cc(OCCN3CCOC4(CC4)C3)cnc2[C@H](C)OC)c2c3cc(ccc31)-c1csc(n1)C[C@H](NC(=O)[C@H]1[C@H](C)[C@@H]1C)C(=O)N1CCC[C@H](N1)C(=O)OCC(C)(C)C2` (atropisomer, axis not shown; (Sa)) [Compound Z551, (1r,2R,3S)—N-((6^3R,4R,Z)—(Sa)-1^2-(5-(2-(4-oxa-7-azaspiro[2,5]octan-7-yl)ethoxy)-2-((S)-1-methoxyethyl)-3-ylpyridin)-1^1-ethyl-10,10-dimethyl-5,7-dioxo-6^1,6^2,6^3,6^4,6^5,6^6-hexahydro-1^1H-8-oxa-2(4,2)-thiazola-1(5,3)-indola-6(1,3)-pyridazinacycloundecaphane-4-yl)-2,3-dimethylcyclopropane-1-carboxamide], the IC50 ([1]; Homo sapiens, ASPC1, 3 h) is reported as 0.29 nM, the IC50 ([2]; Homo sapiens, NCI-H441, 3 h) is reported as 0.27 nM and the IC50 [3, 4] is reported as 0.32 nM. It also gave an IC50 (NCI-H441 cells; [5]) of 0.37 nM.

`CC[C@H](C)C(=O)N[C@H]1Cc2nc(cs2)-c2ccc3c(c2)c(c(-c2cc(OCCN4CCS(=O)(=O)CC4)cnc2[C@H](C)OC)n3CC)CC(C)(C)COC(=O)[C@@H]2CCCN(N2)C1=O` (atropisomer, axis not shown; (Ra)) [Compound Z609, (2S)—N-((6^3S,4S,Z)—(Ra)-1^2-(5-(2-(1,1-dioxidothiomorpholino)ethoxy)-2-((S)-1-methoxyethyl)pyridin-3-yl)-1^1-ethyl-10,10-dimethyl-5,7-dioxo-6^1,6^2,6^3,6^4,6^5,6^6-hexahydro-1^1H-8-oxa-2(4,2)-thiazola-1(5,3)-indola-6(1,3)-pyridazinacycloundecaphane-4-yl)-2-methylbutanamide] gave an IC50 ([1]; Homo sapiens, ASPC1, 3 h) of 0.76 nM, an IC50 ([2]; Homo sapiens, NCI-H441, 3 h) of 0.76 nM and an IC50 [3, 4] of 0.79 nM. It also gave an IC50 (NCI-H441 cells; [5]) of 0.22 nM.

For `CCn1c(-c2cc(C#C[C@@H]3CCCN3C)cnc2[C@H](C)OC)c2c3cc(ccc31)-c1csc(n1)C[C@H](NC(=O)[C@H]1[C@H](C)[C@@H]1C)C(=O)N1CCC[C@H](N1)C(=O)OCC(C)(C)C2` (single isomer, unassigned) [Compound Z598A], the IC50 [1] was 4.13 nM, the IC50 [2] was 1.7 nM and the IC50 [3, 6] was 6.52 nM. The IC50 (NCI-H441 cells; [6]) was 4.73 nM.

With `CCn1c(-c2cc(N3CCN(C)CC3)cnc2[C@H](C)OC)c2c3cc(ccc31)-c1csc(n1)C[C@H](NC(=O)C(C)(C)F)C(=O)N1CCC[C@H](N1)C(=O)OCC(C)(C)C2` (single isomer, unassigned) [Compound Z5] the IC50 [1] was 2.81 nM, the IC50 [2] was 4.24 nM and the IC50 [3, 6] was 19.5 nM. For the same compound, the IC50 (NCI-H441 cells; [6]) was 12.3 nM.

In the case of `CCn1c(-c2cc(OC[C@H]3CCCN3Cc3ccn(C)n3)cnc2[C@H](C)OC)c2c3cc(ccc31)-c1csc(n1)C[C@H](NC(=O)[C@H]1[C@H](C)[C@@H]1C)C(=O)N1CCC[C@H](N1)C(=O)OCC(C)(C)C2` (atropisomer, axis not shown; (Ra)) [Compound Z784-2, (1r,2R,3S)—N-((6^3S,4S,Z)—(Ra)-1^2-5-(((R)-1-((1-methyl-1H-pyrazol-3-yl)methyl)pyrrolidin-2-yl)methoxy)-(2-((S)-1-methoxyethyl)-pyridin-3-yl)-10,10-dimethyl-5,7-dioxo-6^1,6^2,6^3,6^4,6^5,6^6-hexahydro-1^1H-8-oxa-2(4,2)-thiazola-1(5,3)-indola-6(1.3)-pyridazinacycloundecaphane-4-yl)-2,3-dimethylcyclopropane-1-carboxamide], the IC50 ([1]; Homo sapiens, ASPC1, 3 h) is reported as 0.66 nM, the IC50 ([2]; Homo sapiens, NCI-H441, 3 h) is reported as 0.8 nM and the IC50 [3, 4] is reported as 0.83 nM. It also gave an IC50 (NCI-H441 cells; [5]) of 0.53 nM.

In the case of `CCn1c(-c2cc(N3CCN(C4(c5cccc(C)n5)CC4)CC3)cnc2[C@H](C)OC)c2c3cc(ccc31)-c1csc(n1)C[C@H](NC(=O)[C@H]1[C@H](C)[C@@H]1C)C(=O)N1CCC[C@H](N1)C(=O)OCC(C)(C)C2` [Compound Z81, (1r,2R,3S)—N-((6^3S,4S,Z)-1^1-ethyl-2-(2-((S)-1-methoxyethyl)-5-(4-(1-(6-methylpyridin-2-yl)cyclopropyl)piperazin-1-yl)pyridin-3-yl)-10-10-dimethyl-5,7-dioxo-6^1,6^2,6^3,6^4,6^5,6^6-hexahydro-1^1H-8-oxa-2(4,2)-thiazola-1(5,3)-indola-6(1,3)-pyridazinacycloundecaphane-4-yl)-2,3-dimethylcyclopropane-1-carboxamide formate], the IC50 ([1]; Homo sapiens, ASPC1, 3 h) is reported as 2.01 nM, the IC50 ([2]; Homo sapiens, NCI-H441, 3 h) is reported as 1.7 nM and the IC50 [3, 4] is reported as 3.42 nM. It also gave an IC50 (NCI-H441 cells; [5]) of 2.03 nM.

In the case of `CCn1c(-c2cc(N3CCN(C)CC3)cnc2[C@H](C)OC)c2c3cc(ccc31)-c1csc(n1)C[C@H](NC(=O)C(C)(C)F)C(=O)N1CCC[C@H](N1)C(=O)OCC(C)(C)C2` (atropisomer, axis not shown; (Ra)) [Compound Z66, N-((6^3S,4S,Z)-1^1-ethyl-(Ra)-1^2-(2-((S)-1-methoxyethyl)-5-(4-(methyl-d3)piperazin-1-yl)pyridin-3-yl)-10,10-dimethyl-5,7-dioxa-6^1,6^2,6^3,6^4,6^5,6^6-hexahydro-1^1H-8-oxa-2(4,2)-thiazola-1(5,3)-indola-6(1,3)-pyridazinacycloundecaphane-4-yl)-2-fluoro-2-methylpropanamide], the IC50 [1] is reported as 2.72 nM, the IC50 [2] is reported as 4.26 nM and the IC50 [3, 6] is reported as 20.9 nM. It also gave an IC50 (NCI-H441 cells; [6]) of 5.69 nM.

Work on `CCn1c(-c2cc(C#CCN3CCOC[C@@H]3C)cnc2[C@H](C)OC)c2c3cc(ccc31)-c1csc(n1)C[C@H](NC(=O)[C@H]1[C@H](C)[C@@H]1C)C(=O)N1CCCC(N1)C(=O)OCC(C)(C)C2` (atropisomer, axis not shown; (Ra)) [Compound Z814] yielded an IC50 [1] of 0.15 nM, an IC50 [2] of 0.14 nM and an IC50 [3, 6] of 0.14 nM. It also gave an IC50 (NCI-H441 cells; [6]) of 0.18 nM.

Compound `CCn1c(-c2cc(C#CCN3CCCOCC3)cnc2[C@H](C)OC)c2c3cc(ccc31)-c1csc(n1)C[C@H](NC(=O)C(F)(F)C1CC1)C(=O)N1CCC[C@H](N1)C(=O)OCC(C)(C)C2` (atropisomer, axis not shown; (Ra)) [Compound Z927] has an IC50 ([1]; Homo sapiens, ASPC1, 3 h) of 3.89 nM, an IC50 ([2]; Homo sapiens, NCI-H441, 3 h) of 1.77 nM and an IC50 [3, 4] of 6.34 nM. For the same compound, the IC50 (NCI-H441 cells; [5]) was 3.86 nM.

Compound `CO[C@@H](C)c1ncc(OCCN2CCOC3(CC3)C2)cc1-c1c2c3cc(ccc3n1C(C)C)-c1csc(n1)C[C@H](NC(=O)[C@H]1[C@H](C)[C@@H]1C)C(=O)N1CCC[C@H](N1)C(=O)OCC1(CC1)C2` (atropisomer, axis not shown; (Ra)) [Compound Z462, (1r,2R,3S)—N-((3′S,4′S,Z)-2′-(5-(2-(4-oxa-7-azaspiro[2,5]octan-7-yl)ethoxy)-(Ra)-2-((S)-1-methoxyethyl)pyridin-3-yl)-1′-isopropyl 5′,7′-dioxospiro[cyclopropane-1,10′-8-oxa-2(4,2)-thiazola-1(5,3)-indola-6(1,3)-pyridazinacycloundecaphan]-4′-yl)-2,3-dimethylcyclopropane-1-carboxamide] has an IC50 ([1]; Homo sapiens, ASPC1, 3 h) of 1.6 nM, an IC50 ([2]; Homo sapiens, NCI-H441, 3 h) of 1.12 nM and an IC50 [3, 4] of 2.72 nM. It also gave an IC50 (NCI-H441 cells; [5]) of 1.37 nM.

For `CCn1c(-c2cc(C3(N(C)C(=O)CN(C)C)CC3)cnc2[C@H](C)OC)c2c3cc(ccc31)-c1csc(n1)C[C@H](NC(=O)[C@H]1[C@H](C)[C@@H]1C)C(=O)N1CCC[C@H](N1)C(=O)OCC(C)(C)C2` [Compound Z372, (1r,2R,3S)—N-((6^3S,4S,Z)-1^2-(5-(1-(2-(dimethylamino)-N-methylacetamido)cyclopropyl)-2-((S)-1-methoxyethyl)pyridin-3-yl)-1^1-ethyl-10,10-dimethyl-5,7-dioxo-6^1,6^2,6^3,6^4,6^5,6^6-hexahydro-1^1H-8-oxa-2(4,2)-thiazola-1(5,3)-indola-6(1,3)-pyridazinacycloundecaphane-4-yl)-2,3-dimethylcyclopropane-1-carboxamide], the IC50 ([1]; Homo sapiens, ASPC1, 3 h) was 31.4 nM, the IC50 ([2]; Homo sapiens, NCI-H441, 3 h) was 14 nM and the IC50 [3, 4] was 15.3 nM. For the same compound, the IC50 (NCI-H441 cells; [5]) was 6.8 nM.

`CCn1c(-c2cc(OCCN3CCS(=O)(=NC)CC3)cnc2[C@H](C)OC)c2c3cc(ccc31)-c1csc(n1)C[C@H](NC(=O)[C@H]1[C@H](C)[C@@H]1C)C(=O)N1CCC[C@H](N1)C(=O)OCC(C)(C)C2` (atropisomer, axis not shown; (Ra)) [Compound Z601, (1r,2R,3S)—N-((6^3S,4S,Z)-1^1-ethyl-1^2-(Ra)-(2-((S)-1-methoxyethyl)-5-(2-(1-(methylimino)-1-oxido-1λ^6-thiomorpholino)ethoxy)pyridin-3-yl)-10-10-dimethyl-5,7-dioxo-6^1,6^2,6^3,6^4,6^5,6^6-hexahydro-1^1H-8-oxa-2(4,2)-thiazola-1(5,3)-indola-6(1,3)-pyridazinacycloundecaphane-4-yl)-2,3-dimethylcyclopropane-1-carboxamide] showed an IC50 ([1]; Homo sapiens, ASPC1, 3 h) of 0.49 nM, an IC50 ([2]; Homo sapiens, NCI-H441, 3 h) of 0.62 nM and an IC50 [3, 4] of 0.58 nM. The IC50 (NCI-H441 cells; [5]) was 0.36 nM.
